Earlier results as cited in article PMC8250858, “A Systematic Study of the Stability, Safety, and Efficacy of the de novo Designed Antimicrobial Peptide PepD2 and Its Modified Derivatives Against Acinetobacter baumannii” (Frontiers in Microbiology, 2021).

Experiments:
[1] = tested on: carbapenem-resistant A. baumannii; parameters: method as in Huang et al., 2012; conditions: intraperitoneal injection twice a day for 3 days; ref Huang et al., 2012; cited from earlier work
[2] = tested on: 20 strains of A. baumannii; parameters: method as in Huang et al., 2012; conditions: ref Huang et al., 2012; cited from earlier work

For C(LLKK)2C, the “Mice rescued” value [1] is listed as “rescued half of the mice” and the “MIC against 20 strains of A. baumannii” value [2] is listed as 40 to 75 µg/mL.
